Patent publication US8106048B2, “Heterocyclic NF-κB inhibitors” (4SC AG, priority 2004, dated 2012)

Test system: A549-NF-κB-SEAP reporter cells
Experiment: Inhibition of NF-κB-induced inflammation: […] NINA Instant Assay, TNF-α stimulated SEAP reporter
Format: cell-based
Details: % inhibition classes
Text: For the determination of anti-inflammatory activity of the compounds the […]® NINA Instant Assay from Cell Culture Service GmBH was used. This assay is based on […] recombinant A549-NF-κB-SEAP reporter cells preceded in 96-well flat bottom plates. As the transfected reportergen for SEAP (secreted embryonic alkaline phosphatase) is under transcriptional control of a NF-κB-responsive element, the expression of this reporter is activated upon stimulation with TNF-α. SEAP secretion into the culture supernatant can be detected by the chemiluminescent substrate CSPD®. Test compounds that inhibit the NF-κB activation show reduced SEAP activity and reduced luminescent readout.
Following 18 h of reactivation at 37° C., 5% CO2 and 90% relative humidity, the cells were incubated with 0.01 up to 100 μM of test compound for 4.5 h before stimulation with 2 ng/ml TNF-α. After stimulation with TNF-α for 22 h endogenous phosphatases were inactivated and CSPD® substrate was supplied for 40 min. SEAP activity then was quantified by measuring luminescence as relative light units (RLU) using a Tecan Ultra reader. Each data point was recorded in quadruplicates and EC50 values were calculated via fitting function and the Microsoft Excel Solver.

Compound	Biological activity (inhibition in the NF-κB inflammation assay)
CC(C)(C)OC(=O)N1CCC(c2nc(C(=O)NC(=N)Nc3nc4ccccc4[nH]3)cs2)CC1 [compound 95]	+++ (“+++” stands for 90-100% inhibition)
O=C(NCC1CCN(c2nc(C(=O)N3CCN(c4cccc(C(F)(F)F)c4)CC3)cs2)CC1)c1ccc(C(F)(F)F)c(F)c1 [compound 99]	+ (“+” stands for 50-80% inhibition)
O=C(CCC1CCCC1)NCC1CCN(c2nc(C(=O)N3CCN(c4cccc(C(F)(F)F)c4)CC3)cs2)CC1 [compound 100]	+ (“+” stands for 50-80% inhibition)
O=C(NCC1CCN(c2nc(C(=O)N3CCN(c4cccc(C(F)(F)F)c4)CC3)cs2)CC1)c1ccccc1OC(F)(F)F [compound 101]	+ (“+” stands for 50-80% inhibition)
N#Cc1ccc(C(=O)NCC2CCN(c3nc(C(=O)N4CCN(c5cccc(C(F)(F)F)c5)CC4)cs3)CC2)cc1 [compound 102]	+ (“+” stands for 50-80% inhibition)
Cc1sc(C2CCN(C(=O)c3ccccc3OC(F)(F)F)CC2)nc1CC(=O)N1CCN(c2cccc(C(F)(F)F)c2)CC1 [compound 103]	++ (“++” means 80-90%)
O=C(Nc1nc2ccccc2[nH]1)c1csc(C2CCN(C(=O)c3ccccc3OC(F)(F)F)CC2)n1 [compound 105]	+ (“+” stands for 50-80% inhibition)
Cc1cc2nc(NC(=O)Cc3nc(C4CCN(C(=O)c5ccccc5OC(F)(F)F)CC4)sc3C)[nH]c2cc1C [compound 106]	+ (“+” stands for 50-80% inhibition)
O=C(c1csc(C2CCN(Cc3ccncc3)CC2)n1)N1CCN(c2cccc(C(F)(F)F)c2)CC1 [compound 107]	+ (“+” stands for 50-80% inhibition)
O=C(c1csc(C2CCN(Cc3ccccc3OC(F)(F)F)CC2)n1)N1CCN(c2cccc(C(F)(F)F)c2)CC1 [compound 109]	+ (“+” stands for 50-80% inhibition)
O=C(c1csc(C2CCN(C(=O)c3ccccc3OC(F)(F)F)CC2)n1)N(Cc1ccc(Cl)cc1)Cc1ccc(Cl)cc1 [compound 110]	+ (“+” stands for 50-80% inhibition)
O=C(c1csc(C2CCN(C(=O)c3ccccc3OC(F)(F)F)CC2)n1)N1CCC(n2nnc3ccccc32)CC1 [compound 111]	+ (“+” stands for 50-80% inhibition)
N#Cc1ccc(N2CCC(c3nc(C(=O)N4CCN(c5cccc(C(F)(F)F)c5)CC4)cs3)CC2)cc1 [compound 112]	+ (“+” stands for 50-80% inhibition)
O=C(O)N1CCC(c2nc(C(=O)N3CCN(c4cccc(C(F)(F)F)c4)CC3)cs2)CC1 [compound 113]	+ (“+” stands for 50-80% inhibition)
O=C(c1csc(C2CCN(Cc3cccc(OC(F)(F)F)c3)CC2)n1)N1CCN(c2cccc(C(F)(F)F)c2)CC1 [compound 115]	++ (“++” means 80-90%)
COc1ccc(OC)c(N2CCC(c3nc(C(=O)N4CCN(c5cccc(C(F)(F)F)c5)CC4)cs3)CC2)c1 [compound 116]	+ (“+” stands for 50-80% inhibition)
CS(=O)(=O)c1ccc(N2CCC(c3nc(C(=O)N4CCN(c5cccc(C(F)(F)F)c5)CC4)cs3)CC2)cc1 [compound 117]	+ (“+” stands for 50-80% inhibition)
O=C(c1csc(C2CCN(c3cc(C(F)(F)F)ccn3)CC2)n1)N1CCN(c2cccc(C(F)(F)F)c2)CC1 [compound 118]	+ (“+” stands for 50-80% inhibition)
O=C(c1csc(C2CCN(c3ccccc3)CC2)n1)N1CCN(c2cccc(C(F)(F)F)c2)CC1 [compound 119]	+ (“+” stands for 50-80% inhibition)
COc1nc(OC)nc(N2CCN(C(=O)c3csc(C4CCN(Cc5ccccc5)CC4)n3)CC2)n1 [compound 120]	+ (“+” stands for 50-80% inhibition)
COc1nc(OC)nc(N2CCN(C(=O)c3csc(C4CCN(Cc5ccc(Br)cc5)CC4)n3)CC2)n1 [compound 121]	+ (“+” stands for 50-80% inhibition)
O=C(c1csc(C2CCN(c3ccccn3)CC2)n1)N1CCN(c2cccc(C(F)(F)F)c2)CC1 [compound 123]	++ (“++” means 80-90%)
CSc1nccc(N2CCN(C(=O)c3csc(C4CCN(C(=O)c5ccccc5OC(F)(F)F)CC4)n3)CC2)n1 [compound 124]	+ (“+” stands for 50-80% inhibition)
CC(C)(C)OC(=O)N1CCC(C(=O)N2CCN(c3cccc(C(F)(F)F)c3)CC2)CC1 [compound 125]	+ (“+” stands for 50-80% inhibition)

Compound	Biological activity (inhibition in the NF-κB inflammation assay)
COc1nc(OC)nc(N2CCN(C(=O)c3csc(C4CCN(C(=O)Cc5ccc(F)cc5)CC4)n3)CC2)n1 [compound 126]	+ (“+” stands for 50-80% inhibition)
COc1nc(OC)nc(N2CCN(C(=O)c3csc(C4CCN(C(=O)c5ccccc5OC(F)(F)F)CC4)n3)CC2)n1 [compound 127]	+ (“+” stands for 50-80% inhibition)
Cc1sc(C2CCN(C(=O)c3ccccc3OC(F)(F)F)CC2)nc1CC(=O)N1CCN(c2cccc(Cl)c2)CC1 [compound 128]	+++ (“+++” stands for 90-100% inhibition)
O=C(c1csc(C2CCN(C(=O)c3ccccc3OC(F)(F)F)CC2)n1)N1CCN(c2ncnc3nc[nH]c23)CC1 [compound 129]	+ (“+” stands for 50-80% inhibition)
COc1cc(N2CCN(C(=O)c3csc(C4CCN(C(=O)c5ccccc5OC(F)(F)F)CC4)n3)CC2)nc(OC)n1 [compound 130]	+ (“+” stands for 50-80% inhibition)
Cc1cc2nc(NC(=O)c3csc(C4CCN(C(=O)Cc5ccc(F)cc5)CC4)n3)[nH]c2cc1C [compound 131]	+ (“+” stands for 50-80% inhibition)
Cc1cc2nc(NC(=O)c3csc(C4CCN(C(=O)c5cc(-c6ccc(Cl)cc6)oc5C(F)(F)F)CC4)n3)[nH]c2cc1C [compound 132]	+ (“+” stands for 50-80% inhibition)
Cc1cc2nc(NC(=O)c3csc(C4CCN(C(=O)c5ccccc5OC(F)(F)F)CC4)n3)[nH]c2cc1C [compound 133]	+++ (“+++” stands for 90-100% inhibition)
O=C(Nc1ccccc1)N1CCC(c2nc(C(=O)N3CCN(c4cccc(C(F)(F)F)c4)CC3)cs2)CC1 [compound 134]	+ (“+” stands for 50-80% inhibition)
O=C(Nc1cc(F)cc2c1OCCO2)N1CCC(c2nc(C(=O)N3CCN(c4cccc(C(F)(F)F)c4)CC3)cs2)CC1 [compound 135]	+ (“+” stands for 50-80% inhibition)
O=C(Nc1ccc2c(c1)OCCO2)N1CCC(c2nc(C(=O)N3CCN(c4cccc(C(F)(F)F)c4)CC3)cs2)CC1 [compound 136]	+ (“+” stands for 50-80% inhibition)
Cc1cc(NC(=O)N2CCC(c3nc(C(=O)N4CCN(c5cccc(C(F)(F)F)c5)CC4)cs3)CC2)c(C(F)(F)F)o1 [compound 137]	+ (“+” stands for 50-80% inhibition)
O=C(Nc1ccccc1OC(F)(F)F)N1CCC(c2nc(C(=O)N3CCN(c4cccc(C(F)(F)F)c4)CC3)cs2)CC1 [compound 140]	+ (“+” stands for 50-80% inhibition)
O=C(Nc1cccc(F)c1)N1CCC(c2nc(C(=O)N3CCN(c4cccc(C(F)(F)F)c4)CC3)cs2)CC1 [compound 142]	++ (“++” means 80-90%)
O=C(Nc1ccc(F)cc1)N1CCC(c2nc(C(=O)N3CCN(c4cccc(C(F)(F)F)c4)CC3)cs2)CC1 [compound 143]	+ (“+” stands for 50-80% inhibition)
Cc1cc2nc(NC(=O)c3csc(C4CCNCC4)n3)[nH]c2cc1C [compound 144]	+ (“+” stands for 50-80% inhibition)
CC(c1cc2ccccc2[nH]1)N(C)C(=O)c1csc(C2CCN(C(=O)c3ccccc3OC(F)(F)F)CC2)n1 (centres unmarked) [compound 145]	+ (“+” stands for 50-80% inhibition)
O=C(c1csc(C2CCN(C(=O)c3ccccc3OC(F)(F)F)CC2)n1)N1CCOC(c2ccccc2)C1 (centres unmarked) [compound 146]	+ (“+” stands for 50-80% inhibition)
CN(C(=O)c1csc(C2CCN(C(=O)c3ccccc3OC(F)(F)F)CC2)n1)C(CN1CCOCC1)c1ccccc1 (centres unmarked) [compound 147]	+ (“+” stands for 50-80% inhibition)
O=C(c1csc(C2CCN(C(=O)c3ccccc3OC(F)(F)F)CC2)n1)N(CCO)Cc1ccccc1 [compound 148]	++ (“++” means 80-90%)
O=C(c1csc(C2CCN(C(=O)c3ccccc3OC(F)(F)F)CC2)n1)N(CCc1ccccc1)Cc1ccccc1 [compound 149]	+ (“+” stands for 50-80% inhibition)
CNc1ccc(Cl)cc1C1c2ccccc2CCN1C(=O)c1csc(C2CCN(C(=O)c3ccccc3OC(F)(F)F)CC2)n1 (centres unmarked) [compound 150]	++ (“++” means 80-90%)
O=C(c1csc(C2CCN(C(=O)c3ccccc3OC(F)(F)F)CC2)n1)N1CCN(c2cccc(Cl)c2)CC1 [compound 151]	+ (“+” stands for 50-80% inhibition)
